These results are taken from ChEMBL document CHEMBL2074564, “P-glycoprotein interactions of nefazodone and trazodone in cell culture” (J Clin Pharmacol, 2001).

Common to all, as to type: functional, cell-based
Series [1] addresses T1, ATP-dependent translocase ABCB1 (Homo sapiens, UniProt P08183). The series is described as follows: TP_TRANSPORTER: Western blot, LS180V cell. For orientation: Immunoblotting shows a protein as a band on a membrane.
Series [2] deals with T1, ATP-dependent translocase ABCB1. The experiment in a line: TP_TRANSPORTER: inhibition of Rhodamine 123 transepithelial transport (basal to apical) (R123: 5 uM) in Caco-2 cells.
For series [3] the target is unchanged. The experiment in a line: TP_TRANSPORTER: transepithelial transport (basal to apical) in Caco-2 cells. On the technique in general: Passage across Caco-2 layers is used to estimate intestinal permeability.

T1 sequence (P08183 whole entry): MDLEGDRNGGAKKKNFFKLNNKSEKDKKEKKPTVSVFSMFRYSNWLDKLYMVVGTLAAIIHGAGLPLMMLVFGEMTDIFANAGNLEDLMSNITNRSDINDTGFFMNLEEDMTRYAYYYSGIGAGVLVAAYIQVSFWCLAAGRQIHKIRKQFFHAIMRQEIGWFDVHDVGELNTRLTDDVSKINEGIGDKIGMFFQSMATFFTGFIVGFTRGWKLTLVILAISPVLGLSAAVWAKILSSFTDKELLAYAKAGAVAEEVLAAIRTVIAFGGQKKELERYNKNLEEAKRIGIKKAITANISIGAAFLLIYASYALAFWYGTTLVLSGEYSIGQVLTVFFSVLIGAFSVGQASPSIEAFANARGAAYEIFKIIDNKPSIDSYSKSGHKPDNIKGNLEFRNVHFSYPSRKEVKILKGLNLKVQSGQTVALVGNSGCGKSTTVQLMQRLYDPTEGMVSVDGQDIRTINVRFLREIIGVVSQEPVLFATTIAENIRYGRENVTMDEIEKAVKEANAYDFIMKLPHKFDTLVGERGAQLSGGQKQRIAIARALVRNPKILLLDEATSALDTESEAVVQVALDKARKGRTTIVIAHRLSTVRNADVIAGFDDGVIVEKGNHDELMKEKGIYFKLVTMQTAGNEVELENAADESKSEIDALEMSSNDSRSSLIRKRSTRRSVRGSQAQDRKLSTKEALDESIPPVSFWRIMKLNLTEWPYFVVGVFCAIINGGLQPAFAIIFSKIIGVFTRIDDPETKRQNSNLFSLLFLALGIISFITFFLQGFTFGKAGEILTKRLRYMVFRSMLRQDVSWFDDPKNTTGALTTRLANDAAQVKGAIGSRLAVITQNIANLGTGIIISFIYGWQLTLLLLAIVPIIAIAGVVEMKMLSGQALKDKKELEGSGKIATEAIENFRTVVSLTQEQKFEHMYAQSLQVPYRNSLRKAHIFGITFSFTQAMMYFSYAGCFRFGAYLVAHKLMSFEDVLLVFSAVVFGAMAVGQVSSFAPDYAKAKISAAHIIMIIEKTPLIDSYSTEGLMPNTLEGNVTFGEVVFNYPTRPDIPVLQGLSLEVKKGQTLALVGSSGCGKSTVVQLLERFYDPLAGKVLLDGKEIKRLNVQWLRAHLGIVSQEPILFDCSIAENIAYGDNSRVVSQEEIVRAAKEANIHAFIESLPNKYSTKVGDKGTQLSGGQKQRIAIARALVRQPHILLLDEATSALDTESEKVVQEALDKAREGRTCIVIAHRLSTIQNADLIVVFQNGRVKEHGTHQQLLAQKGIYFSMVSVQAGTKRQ

As for `O=c1n(CCCN2CCN(c3cccc(Cl)c3)CC2)nc2ccccn12` [TRAZODONE], the Activity entry in series [1] is “inducer [+]”.
The term IC50 denotes the midpoint of a concentration-inhibition curve. Lower therefore signals higher potency. `CCc1nn(CCCN2CCN(c3cccc(Cl)c3)CC2)c(=O)n1CCOc1ccccc1` [NEFAZODONE]: the Activity result is “inducer [+]” in series [1] and “is not a substrate [-]” in series [3]. In series [2], this molecule yielded an IC50 of 4.7 µM.
